Measured values: US8927717B1, “Thiochromeno[2,3-c]quinolin-12-one derivatives, preparation method and application thereof” (National Defense Medical Center, priority 2014, dated 2015)

How the values were obtained:
CCRF-CEM = assay type: cell-based; settings: Leukemia; 10^−5 molar; 48 hours; SRB
HL-60(TB) = assay type: cell-based; settings: Leukemia; 10^−5 molar; 48 hours; SRB
K-562 = assay type: cell-based; settings: Leukemia; 10^−5 molar; 48 hours; SRB
MOLT-4 = assay type: cell-based; settings: Leukemia; 10^−5 molar; 48 hours; SRB
RPMI-8226 = assay type: cell-based; settings: Leukemia; 10^−5 molar; 48 hours; SRB
SR = assay type: cell-based; settings: Leukemia; 10^−5 molar; 48 hours; SRB
A549/ATCC = assay type: cell-based; settings: Non-small cell lung cancer; 10^−5 molar; 48 hours; SRB
HOP-62 = assay type: cell-based; settings: Non-small cell lung cancer; 10^−5 molar; 48 hours; SRB
HOP-92 = assay type: cell-based; settings: Non-small cell lung cancer; 10^−5 molar; 48 hours; SRB
NCI-H226 = assay type: cell-based; settings: Non-small cell lung cancer; 10^−5 molar; 48 hours; SRB
NCI-H23 = assay type: cell-based; settings: Non-small cell lung cancer; 10^−5 molar; 48 hours; SRB
NCI-H460 = assay type: cell-based; settings: Non-small cell lung cancer; 10^−5 molar; 48 hours; SRB
NCI-H522 = assay type: cell-based; settings: Non-small cell lung cancer; 10^−5 molar; 48 hours; SRB
COLO 205 = assay type: cell-based; settings: Colon cancer; 10^−5 molar; 48 hours; SRB
HCC-2998 = assay type: cell-based; settings: Colon cancer; 10^−5 molar; 48 hours; SRB
HCT-116 = assay type: cell-based; settings: Colon cancer; 10^−5 molar; 48 hours; SRB
HCT-15 = assay type: cell-based; settings: Colon cancer; 10^−5 molar; 48 hours; SRB
HT29 = assay type: cell-based; settings: Colon cancer; 10^−5 molar; 48 hours; SRB
KM12 = test: cells; assay type: cell-based; settings: Colon cancer; 10^−5 molar; 48 hours; SRB
SW-620 = assay type: cell-based; settings: Colon cancer; 10^−5 molar; 48 hours; SRB
SF-268 = assay type: cell-based; settings: CNS cancer; 10^−5 molar; 48 hours; SRB
SF-295 = assay type: cell-based; settings: CNS cancer; 10^−5 molar; 48 hours; SRB
SF-539 = assay type: cell-based; settings: CNS cancer; 10^−5 molar; 48 hours; SRB
SNB-19 = assay type: cell-based; settings: CNS cancer; 10^−5 molar; 48 hours; SRB
SNB-75 = assay type: cell-based; settings: CNS cancer; 10^−5 molar; 48 hours; SRB
U251 = assay type: cell-based; settings: CNS cancer; 10^−5 molar; 48 hours; SRB
LOX IMVI = assay type: cell-based; settings: Melanoma; 10^−5 molar; 48 hours; SRB
MALME-3M = assay type: cell-based; settings: Melanoma; 10^−5 molar; 48 hours; SRB
M14 = assay type: cell-based; settings: Melanoma; 10^−5 molar; 48 hours; SRB
MDA-MB-435 = assay type: cell-based; settings: Melanoma; 10^−5 molar; 48 hours; SRB
SK-MEL-2 = assay type: cell-based; settings: Melanoma; 10^−5 molar; 48 hours; SRB
SK-MEL-28 = assay type: cell-based; settings: Melanoma; 10^−5 molar; 48 hours; SRB
SK-MEL-5 = assay type: cell-based; settings: Melanoma; 10^−5 molar; 48 hours; SRB
UACC-257 = assay type: cell-based; settings: Melanoma; 10^−5 molar; 48 hours; SRB
UACC-62 = assay type: cell-based; settings: Melanoma; 10^−5 molar; 48 hours; SRB
IGROV1 = assay type: cell-based; settings: Ovarian cancer; 10^−5 molar; 48 hours; SRB
OVCAR-4 = assay type: cell-based; settings: Ovarian cancer; 10^−5 molar; 48 hours; SRB
OVCAR-5 = assay type: cell-based; settings: Ovarian cancer; 10^−5 molar; 48 hours; SRB
OVCAR-8 = assay type: cell-based; settings: Ovarian cancer; 10^−5 molar; 48 hours; SRB
NCI/ADR-RES = assay type: cell-based; settings: Ovarian cancer; 10^−5 molar; 48 hours; SRB
SK-OV-3 = assay type: cell-based; settings: Ovarian cancer; 10^−5 molar; 48 hours; SRB
786-0 = assay type: cell-based; settings: Renal cancer; 10^−5 molar; 48 hours; SRB
A498 = assay type: cell-based; settings: Renal cancer; 10^−5 molar; 48 hours; SRB
ACHN = assay type: cell-based; settings: Renal cancer; 10^−5 molar; 48 hours; SRB
CAKI-1 = assay type: cell-based; settings: Renal cancer; 10^−5 molar; 48 hours; SRB
RXF 393 = assay type: cell-based; settings: Renal cancer; 10^−5 molar; 48 hours; SRB
SN12C = assay type: cell-based; settings: Renal cancer; 10^−5 molar; 48 hours; SRB
TK-10 = assay type: cell-based; settings: Renal cancer; 10^−5 molar; 48 hours; SRB
UO-31 = assay type: cell-based; settings: Renal cancer; 10^−5 molar; 48 hours; SRB
PC-3 = assay type: cell-based; settings: Prostate cancer; 10^−5 molar; 48 hours; SRB
DU-145 = assay type: cell-based; settings: Prostate cancer; 10^−5 molar; 48 hours; SRB
MCF7 = assay type: cell-based; settings: Breast cancer; 10^−5 molar; 48 hours; SRB
MDA-MB-231/ATCC = assay type: cell-based; settings: Breast cancer; 10^−5 molar; 48 hours; SRB
HS 578T = assay type: cell-based; settings: Breast cancer; 10^−5 molar; 48 hours; SRB
BT-549 = assay type: cell-based; settings: Breast cancer; 10^−5 molar; 48 hours; SRB
T-47D = assay type: cell-based; settings: Breast cancer; 10^−5 molar; 48 hours; SRB
MDA-MB-486 = assay type: cell-based; settings: Breast cancer; 10^−5 molar; 48 hours; SRB
60 cancer cell lines = test: NCI 60-cell screen, SRB, whole panel (mean, delta, range); assay type: cell-based; settings: 10^−5 molar, 48 hours, SRB; for Growth percent, Delta: delta over the cell panel; for Growth percent, Mean: mean over the cell panel; for Growth percent, Range: range over the cell panel

SMILES: CNc1nc2ccccc2c2c(=O)c3cc(Cl)ccc3sc12 [Compound N1, 10-Chloro-6-methylamino-12H-thiochromeno[2,3-c]quinolin-12-one]
- Growth percent CCRF-CEM (CCRF-CEM): 79.77%
- Growth percent HL-60(TB) (HL-60(TB)): 131.66%
- Growth percent K-562 (K-562): 40.69%
- Growth percent MOLT-4 (MOLT-4): 86.86%
- Growth percent RPMI-8226 (RPMI-8226): 93.10%
- Growth percent SR (SR): 47.76%
- Growth percent A549/ATCC (A549/ATCC): 51.68%
- Growth percent HOP-62 (HOP-62): 79.39%
- Growth percent HOP-92 (HOP-92): 59.15%
- Growth percent NCI-H226 (NCI-H226): 73.53%
- Growth percent NCI-H23 (NCI-H23): 44.39%
- Growth percent NCI-H460 (NCI-H460): 73.84%
- Growth percent NCI-H522 (NCI-H522): 97.00%
- Growth percent COLO 205 (COLO 205): 94.82%
- Growth percent HCC-2998 (HCC-2998): 105.34%
- Growth percent HCT-116 (HCT-116): 32.49%
- Growth percent HCT-15 (HCT-15): 68.73%
- Growth percent HT29 (HT29): 114.79%
- Growth percent KM12 (KM12): 68.75%
- Growth percent SW-620 (SW-620): 84.37%
- Growth percent SF-268 (SF-268): 70.58%
- Growth percent SF-295 (SF-295): 89.04%
- Growth percent SF-539 (SF-539): 59.86%
- Growth percent SNB-19 (SNB-19): 96.48%
- Growth percent SNB-75 (SNB-75): 67.29%
- Growth percent U251 (U251): 85.19%
- Growth percent LOX IMVI (LOX IMVI): 44.95%
- Growth percent MALME-3M (MALME-3M): 72.46%
- Growth percent M14 (M14): 105.85%
- Growth percent MDA-MB-435 (MDA-MB-435): 84.97%
- Growth percent SK-MEL-2 (SK-MEL-2): 110.10%
- Growth percent SK-MEL-28 (SK-MEL-28): 83.41%
- Growth percent SK-MEL-5 (SK-MEL-5): 80.13%
- Growth percent UACC-257 (UACC-257): 91.23%
- Growth percent UACC-62 (UACC-62): 77.66%
- Growth percent IGROV1 (IGROV1): 67.97%
- Growth percent OVCAR-4 (OVCAR-4): 71.33%
- Growth percent OVCAR-5 (OVCAR-5): 86.91%
- Growth percent OVCAR-8 (OVCAR-8): 31.61%
- Growth percent NCI/ADR-RES (NCI/ADR-RES): 70.95%
- Growth percent SK-OV-3 (SK-OV-3): 88.67%
- Growth percent 786-0 (786-0): 95.51%
- Growth percent A498 (A498): 82.89%
- Growth percent ACHN (ACHN): 84.47%
- Growth percent CAKI-1 (CAKI-1): 68.09%
- Growth percent RXF 393 (RXF 393): 84.52%
- Growth percent SN12C (SN12C): 92.52%
- Growth percent TK-10 (TK-10): 81.21%
- Growth percent UO-31 (UO-31): 65.34%
- Growth percent PC-3 (PC-3): 61.41%
- Growth percent DU-145 (DU-145): 80.29%
- Growth percent MCF7 (Table 2: MCF) (MCF7): 23.26%
- Growth percent MDA-MB-231/ATCC (MDA-MB-231/ATCC): 66.58%
- Growth percent HS 578T (HS 578T): 82.63%
- Growth percent BT-549 (BT-549): 108.49%
- Growth percent T-47D (T-47D): 42.13%
- Growth percent MDA-MB-486 (MDA-MB-486): 8.75%
- Growth percent, Delta (60 cancer cell lines): 66.31%
- Growth percent, Mean (60 cancer cell lines): 75.06%
- Growth percent, Range (60 cancer cell lines): 122.91%
- melting point: 237 to 238 °C

SMILES: CCC(CC)Nc1nc2ccccc2c2c(=O)c3cc(Cl)ccc3sc12 [Compound N6, 10-Chloro-6-(pentan-3-ylamino)-12H-thiochromeno[2,3-c]quinolin-12-one]
- Growth percent CCRF-CEM (CCRF-CEM): 93.72%
- Growth percent HL-60(TB) (HL-60(TB)): 141.93%
- Growth percent K-562 (K-562): 95.25%
- Growth percent MOLT-4 (MOLT-4): 103.08%
- Growth percent RPMI-8226 (RPMI-8226): 108.60%
- Growth percent SR (SR): 104.59%
- Growth percent A549/ATCC (A549/ATCC): 91.04%
- Growth percent HOP-62 (HOP-62): 95.32%
- Growth percent HOP-92 (HOP-92): 83.26%
- Growth percent NCI-H226 (NCI-H226): 79.22%
- Growth percent NCI-H23 (NCI-H23): 94.17%
- Growth percent NCI-H460 (NCI-H460): 99.42%
- Growth percent NCI-H522 (NCI-H522): 99.02%
- Growth percent COLO 205 (COLO 205): 107.68%
- Growth percent HCC-2998 (HCC-2998): 119.79%
- Growth percent HCT-116 (HCT-116): 99.01%
- Growth percent HCT-15 (HCT-15): 95.35%
- Growth percent HT29 (HT29): 116.70%
- Growth percent KM12 (KM12): 94.04%
- Growth percent SW-620 (SW-620): 104.94%
- Growth percent SF-268 (SF-268): 102.86%
- Growth percent SF-295 (SF-295): 104.18%
- Growth percent SF-539 (SF-539): 95.09%
- Growth percent SNB-19 (SNB-19): 99.01%
- Growth percent SNB-75 (SNB-75): 73.24%
- Growth percent U251 (U251): 97.05%
- Growth percent LOX IMVI (LOX IMVI): 89.35%
- Growth percent MALME-3M (MALME-3M): 92.36%
- Growth percent M14 (M14): 107.34%
- Growth percent MDA-MB-435 (MDA-MB-435): 108.13%
- Growth percent SK-MEL-2 (SK-MEL-2): 104.97%
- Growth percent SK-MEL-28 (SK-MEL-28): 98.40%
- Growth percent SK-MEL-5 (SK-MEL-5): 90.08%
- Growth percent UACC-257 (UACC-257): 99.44%
- Growth percent UACC-62 (UACC-62): 83.74%
- Growth percent IGROV1 (IGROV1): 80.40%
- Growth percent OVCAR-4 (OVCAR-4): 98.77%
- Growth percent OVCAR-5 (OVCAR-5): 99.96%
- Growth percent OVCAR-8 (OVCAR-8): 95.31%
- Growth percent NCI/ADR-RES (NCI/ADR-RES): 101.32%
- Growth percent SK-OV-3 (SK-OV-3): 99.71%
- Growth percent 786-0 (786-0): 108.84%
- Growth percent A498 (A498): 103.44%
- Growth percent ACHN (ACHN): 84.92%
- Growth percent CAKI-1 (CAKI-1): 73.26%
- Growth percent RXF 393 (RXF 393): 93.23%
- Growth percent SN12C (SN12C): 94.28%
- Growth percent TK-10 (TK-10): 138.89%
- Growth percent UO-31 (UO-31): 78.57%
- Growth percent PC-3 (PC-3): 84.63%
- Growth percent DU-145 (DU-145): 109.54%
- Growth percent MCF7 (Table 2: MCF) (MCF7): 67.12%
- Growth percent MDA-MB-231/ATCC (MDA-MB-231/ATCC): 77.83%
- Growth percent HS 578T (HS 578T): 89.81%
- Growth percent BT-549 (BT-549): 109.76%
- Growth percent T-47D (T-47D): 73.62%
- Growth percent MDA-MB-486 (MDA-MB-486): 95.79%
- Growth percent, Delta (60 cancer cell lines): 29.82%
- Growth percent, Mean (60 cancer cell lines): 96.94%
- Growth percent, Range (60 cancer cell lines): 74.81%
- melting point: 160 to 161 °C
